Measured values: patent US9630914B2, “Multitarget FAAH and COX inhibitors and therapeutical uses thereof” (FONDAZIONE ISTITUTO ITALIANO DI TECNOLOGIA, priority 2012, dated 2017)
Where two headings read alike, the source gives them in different places.

Columns and labels:
Assay type in all cases: biochemical
ovine COX-1 = ovine COX-1 (Ovis aries (Sheep), UniProt P05979); assay: In vitro COX assay (COX Inhibitor Screening Assay Kit), COX-1; conditions: 5 μM arachidonic acid
Method: (§1) COX activity was measured using a commercial kit (COX Inhibitor Screening Assay Kit—Cayman Chemical N. 560131) which includes both ovine COX-1 and human recombinant COX-2 enzymes. Inhibitors were pre-incubated with either ovine COX-1 or human COX-2 in order to screen isozyme-specific inhibition. Differently than described in the kit protocol, the reaction was carried out in the presence of 5 μM arachidonic acid while for the blank sample (no activity) the two enzymes were inactivated for 40 minutes at 100° C. It was then measured the amount of PGF2α produced by reduction with SnCl2 of COX-derived PGH2, via enzyme immunoassay (EIA) using a PG-specific antibody and competing with a PG-acetylcholinesterase conjugate.
(§2) Absorbance was measured at 412 nm with a Tecan Infinite M200 plate reader and data were processed according to manufacturer's instructions.
(§3) The median inhibitory concentrations (IC50) were determined by non-linear regression analysis of the Log [concentration]/response curves generated with mean replicate values using a four parameter Hill equation curve fitting with GraphPad Prism 5 (GraphPad Software Inc., CA-USA).

human recombinant COX-2 = human recombinant COX-2 (Homo sapiens (Human), UniProt P35354); assay: In vitro COX assay (COX Inhibitor Screening Assay Kit), COX-2
Method: as §1, §2, §3

human FAAH-1 = human FAAH-1 (Homo sapiens (Human), UniProt O00519); assay: In vitro human FAAH fluorescent assay; conditions: human FAAH-1 membrane preparation from HEK-293; means of ≧3 experiments
Method: In Vitro Human FAAH Fluorescent Assay
Human recombinant FAAH was obtained from a HEK-293 FAAH-1 overexpressing stable cell line. Cells were grown in DMEM medium containing 10% FBS, 1% pen/strep, 1% glutamine and 500 μg/mL G418. To obtain membrane preparation cells were scraped off with cold phosphate-buffered saline (PBS) and collected by centrifugation (500×g, 10 minutes, 4° C.); the cell pellet was re-suspended in 20 mM Tris-HCl pH 7.4, 0.32 M sucrose, disrupted by sonication (10 pulses, 5 times) and centrifuged (800×g, 15 minutes, 4° C.); the collected supernatant was centrifuged at 105,000×g for 1 h at 4° C. and the pellet was re-suspended in PBS.
The background (no activity) samples were prepared using 180 μL of assay buffer without human FAAH-1 and 10 μL of DMSO. The reaction was then started by the addition of 10 μL of substrate (AMC arachidonyl amide, N. 10005098, Cayman Chemical) dissolved in ethanol and used at a final concentration of 2 μM. The reaction was carried out for 30 minutes at 37° C. and fluorescence was measured with a Tecan Infinite M200 nanoquant plate reader (excitation wavelength 350 nm/emission wavelength 460 nm).
as §3

Rat FAAH = Rat FAAH (Rattus norvegicus (Rat), UniProt P97612); assay: In vitro rat FAAH radiometric assay; conditions: rat brain homogenate; means of ≧3 experiments in duplicate
Method: In Vitro Rat FAAH Radiometric Assay
Rat FAAH was prepared from male Sprague Dawley rat brains, homogenized in a potter in 20 mM of Tris HCl pH 7.4, 0.32 M sucrose.
After 10 minutes of pre-incubation with test compounds, the reaction was started by adding of 50 μL of substrate and incubating for 30 min at 37° C. The substrate was prepared in assay buffer in order to achieve the final concentration of 1 μM arachidonoyl ethanolamide (Cayman Chemical N. 90050) and 0.6 nM anandamide [ethanolamine-1-^3H](American Radiolabeled Chemicals Inc., ART. 0626, conc. 1 mCi/mL, S.A. 60 Ci/mmol). The reaction was stopped by adding cold 1:1 CHCl3/MeOH. After 10 minutes of centrifugation (845×g at 4° C.) 600 μL of aqueous phase were transferred into scintillation vials previously filled with 3 mL of scintillation fluid (Ultima Gold™, Perkin Elmer Inc., Cat. 6013329). Radioactivity was measured by liquid scintillation counting (MicroBeta2 LumiJET Perkin Elmer Inc.).
as §3

[1] = 5 μM arachidonic acid, read-out: human COX-2 IC50

Chain of ovine COX-1 (P05979 25-600): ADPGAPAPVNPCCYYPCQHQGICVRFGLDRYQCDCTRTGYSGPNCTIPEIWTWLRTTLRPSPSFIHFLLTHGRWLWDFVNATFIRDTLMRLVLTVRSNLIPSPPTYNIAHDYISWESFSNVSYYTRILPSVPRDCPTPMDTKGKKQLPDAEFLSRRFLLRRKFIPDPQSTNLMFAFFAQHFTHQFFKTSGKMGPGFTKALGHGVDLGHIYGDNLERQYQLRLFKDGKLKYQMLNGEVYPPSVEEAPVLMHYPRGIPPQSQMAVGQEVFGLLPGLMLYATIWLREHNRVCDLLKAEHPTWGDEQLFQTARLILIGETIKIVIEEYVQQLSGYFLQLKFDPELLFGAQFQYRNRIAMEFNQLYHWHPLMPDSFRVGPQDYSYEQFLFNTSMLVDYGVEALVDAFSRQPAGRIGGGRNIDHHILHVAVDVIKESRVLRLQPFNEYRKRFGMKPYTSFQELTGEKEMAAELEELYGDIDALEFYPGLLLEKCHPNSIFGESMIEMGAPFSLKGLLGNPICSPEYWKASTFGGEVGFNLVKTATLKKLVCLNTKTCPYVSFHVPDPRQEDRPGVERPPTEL
Chain of human recombinant COX-2 (P35354 18-604): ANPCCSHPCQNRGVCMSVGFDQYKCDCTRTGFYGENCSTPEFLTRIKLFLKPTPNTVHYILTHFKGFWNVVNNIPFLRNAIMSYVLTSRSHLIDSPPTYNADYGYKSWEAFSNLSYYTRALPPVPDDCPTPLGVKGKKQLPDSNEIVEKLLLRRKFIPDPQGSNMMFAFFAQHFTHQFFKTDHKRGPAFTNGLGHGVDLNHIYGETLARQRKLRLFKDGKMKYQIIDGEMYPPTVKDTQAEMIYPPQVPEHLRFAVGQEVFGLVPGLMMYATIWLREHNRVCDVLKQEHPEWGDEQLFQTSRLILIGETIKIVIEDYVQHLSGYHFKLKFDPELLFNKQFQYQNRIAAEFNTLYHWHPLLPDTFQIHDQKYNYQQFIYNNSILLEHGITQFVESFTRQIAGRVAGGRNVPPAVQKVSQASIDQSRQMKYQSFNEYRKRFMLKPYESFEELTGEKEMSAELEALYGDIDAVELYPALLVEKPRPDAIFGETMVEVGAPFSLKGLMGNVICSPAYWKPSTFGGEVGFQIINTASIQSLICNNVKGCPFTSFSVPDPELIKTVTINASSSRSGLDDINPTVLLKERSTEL
Chain of Rat FAAH (P97612 whole entry): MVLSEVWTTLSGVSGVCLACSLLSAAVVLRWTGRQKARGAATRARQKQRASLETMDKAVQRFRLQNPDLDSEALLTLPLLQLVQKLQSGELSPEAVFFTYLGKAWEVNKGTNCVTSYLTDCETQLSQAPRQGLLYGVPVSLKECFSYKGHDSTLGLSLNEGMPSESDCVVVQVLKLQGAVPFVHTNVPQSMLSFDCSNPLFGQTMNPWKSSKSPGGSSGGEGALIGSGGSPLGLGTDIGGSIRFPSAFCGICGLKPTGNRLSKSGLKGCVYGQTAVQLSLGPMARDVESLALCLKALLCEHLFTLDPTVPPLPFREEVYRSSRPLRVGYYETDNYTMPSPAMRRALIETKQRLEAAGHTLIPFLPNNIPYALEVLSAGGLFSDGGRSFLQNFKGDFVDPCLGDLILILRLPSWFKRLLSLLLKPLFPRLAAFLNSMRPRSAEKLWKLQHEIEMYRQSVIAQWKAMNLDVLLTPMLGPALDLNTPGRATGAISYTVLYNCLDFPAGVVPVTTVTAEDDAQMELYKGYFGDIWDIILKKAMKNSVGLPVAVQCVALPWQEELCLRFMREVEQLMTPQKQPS
Chain of human FAAH-1 (O00519 whole entry): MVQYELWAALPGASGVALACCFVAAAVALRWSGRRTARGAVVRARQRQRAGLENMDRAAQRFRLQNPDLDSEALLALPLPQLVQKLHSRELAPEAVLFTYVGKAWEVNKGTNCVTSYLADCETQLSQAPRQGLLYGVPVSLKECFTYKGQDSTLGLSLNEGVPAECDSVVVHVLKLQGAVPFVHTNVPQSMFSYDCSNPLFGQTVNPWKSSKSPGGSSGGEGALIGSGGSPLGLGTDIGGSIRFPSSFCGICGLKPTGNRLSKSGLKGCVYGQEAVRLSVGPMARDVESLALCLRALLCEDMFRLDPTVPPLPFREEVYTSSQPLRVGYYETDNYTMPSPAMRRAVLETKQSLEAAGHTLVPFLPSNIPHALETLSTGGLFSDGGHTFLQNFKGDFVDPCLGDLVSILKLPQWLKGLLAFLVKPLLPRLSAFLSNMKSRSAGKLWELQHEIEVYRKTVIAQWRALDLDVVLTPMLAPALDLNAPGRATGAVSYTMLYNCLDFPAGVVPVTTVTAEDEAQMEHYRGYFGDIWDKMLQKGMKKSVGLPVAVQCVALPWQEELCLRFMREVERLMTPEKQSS

Row | Compound | IC50 (ovine COX-1) [nM] | IC50 (human recombinant COX-2) [nM] | IC50 (human FAAH-1) [nM] | IC50 (Rat FAAH) [nM] | IC50 (human recombinant COX-2; [1]) [nM]
1 | CCCCCCNC(=O)Oc1cccc(-c2ccc(C(C)C(=O)O)cc2F)c1 (single isomer, unassigned; (+)) [Example 20, (+)-2-[3-fluoro-4-[3-(hexylcarbamoyloxy)phenyl]phenyl]propanoic acid] | 0.01 | – | – | – | –
2 | CCCCCCNC(=O)Oc1cccc(-c2ccc(C(C)C(=O)O)cc2F)c1 (single isomer, unassigned; (-)) [Example 19, (−)-2-[3-fluoro-4-[3-(hexylcarbamoyloxy)phenyl]phenyl]propanoic acid] | 13000 | – | – | – | –
3 | CC(C(=O)O)c1ccc(-c2cccc(OC(=O)NC3CCCCC3)c2)c(F)c1 (stereo not shown) [Example 1, 2-[4-[3-(cyclohexylcarbamoyloxy)phenyl]-3-fluoro-phenyl]propanoic acid] | 7900 | > 30000 | 1800 | 8200 | –
4 | CC(C(=O)O)c1ccc(-c2cccc(OC(=O)NC3CCCC3)c2)c(F)c1 (stereo not shown) [Example 2, 2-[4-[3-(cyclopentylcarbamoyloxy)phenyl]-3-fluoro-phenyl]propanoic acid] | 4400 | > 30000 | 1800 | 4800 | –
5 | CC(C)CNC(=O)Oc1cccc(-c2ccc(C(C)C(=O)O)cc2F)c1 (stereo not shown) [Example 3, 2-[3-fluoro-4-[3-(isobutylcarbamoyloxy)phenyl]phenyl]propanoic acid] | 8200 | > 30000 | 1600 | 5600 | –
6 | CC(C(=O)O)c1ccc(-c2cccc(OC(=O)NCC3CCCCC3)c2)c(F)c1 (stereo not shown) [Example 4, 2-[4-[3-(cyclohexylmethylcarbamoyloxy)phenyl]-3-fluoro-phenyl]propanoic acid] | 600 | > 30000 | 280 | 360 | –
7 | CC(C(=O)O)c1ccc(-c2cccc(OC(=O)NCCC3CCCCC3)c2)c(F)c1 (stereo not shown) [Example 5, 2-[4-[3-(2-cyclohexylethylcarbamoyloxyl)phenyl]-3-fluoro-phenyl]propanoic acid] | 150 | – | 9 | 18 | 11000
8 | CC(C(=O)O)c1ccc(-c2cccc(OC(=O)NCc3ccccc3)c2)c(F)c1 (stereo not shown) [Example 6, 2-[4-[3-(benzylcarbamoyloxy)phenyl]-3-fluoro-phenyl]propanoicacid] | 1300 | > 30000 | 7200 | 4200 | –
9 | CC(C(=O)O)c1ccc(-c2cccc(OC(=O)NCCc3ccccc3)c2)c(F)c1 (stereo not shown) [Example 7, 2-[3-fluoro-4-[3-(phenethylcarbamoyloxy)phenyl]phenyl]propanoic acid] | 6300 | > 30000 | 70 | 170 | –
10 | CC(C(=O)O)c1ccc(-c2cccc(OC(=O)NCCCc3ccccc3)c2)c(F)c1 (stereo not shown) [Example 8, 2-[3-fluoro-4-[3-(3-phenylpropylcarbamoyloxyl)phenyl]phenyl]propanoic acid] | 580 | – | 22 | 90 | 6200
11 | CC(C(=O)O)c1ccc(-c2cccc(OC(=O)NCCCCc3ccccc3)c2)c(F)c1 (stereo not shown) [Example 9, 2-[3-fluoro-4-[3-(4-phenylbutylcarbamoyloxyl)phenyl]phenyl]propanoic acid] | 3700 | > 30000 | 13 | 27 | –
12 | CCCCNC(=O)Oc1cccc(-c2ccc(C(C)C(=O)O)cc2F)c1 (stereo not shown) [Example 10, 2-[4-[3-(butylcarbamoyloxy)phenyl]-3-fluoro-phenyl]propanoic acid] | 260 | > 30000 | 1500 | 7000 | –
13 | CCCCCNC(=O)Oc1cccc(-c2ccc(C(C)C(=O)O)cc2F)c1 (stereo not shown) [Example 11, 2-[3-fluoro-4-[3-(pentylcarbamoyloxy)phenyl]phenyl]propanoic acid] | 20 | – | 92 | 570 | 160
14 | CCCCCCCNC(=O)Oc1cccc(-c2ccc(C(C)C(=O)O)cc2F)c1 (stereo not shown) [Example 13, 2-[3-fluoro-4-[3-(heptylcarbamoyloxy)phenyl]phenyl]propanoic acid] | 370 | – | 6 | 11 | 320
15 | CCCCCCCCNC(=O)Oc1cccc(-c2ccc(C(C)C(=O)O)cc2F)c1 (stereo not shown) [Example 14, 2-[3-fluoro-4-[3-(octylcarbamoyloxy)phenyl]phenyl]propanoic acid] | 990 | – | 4 | 2.6 | 29000
16 | CCCCCCNC(=O)Oc1cccc(-c2ccc(C(C)CO)cc2F)c1 (stereo not shown) [Example 15, [3-[2-fluoro-4-(2-hydroxy-1-methyl-ethyl)phenyl]phenyl]N-hexylcarbamate] | 1100 | > 30000 | 9.1 | 3.3 | –
17 | CCCCCCNC(=O)Oc1cccc(-c2ccc(CC(=O)O)cc2F)c1 [Example 16, 2-[3-fluoro-4-[3-(hexylcarbamoyloxy)phenyl]phenyl]acetic acid] | 2100 | – | 16 | 63 | 240
18 | CCCCCCNC(=O)Oc1ccccc1-c1ccc(C(C)C(=O)O)cc1F (stereo not shown) [Example 17, 2-[3-fluoro-4-[2-(hexylcarbamoyloxy)phenyl]phenyl]propanoic acid] | 720 | > 30000 | 740 | 2200 | –
19 | CCCCCCOC(=O)Nc1cccc(-c2ccc(C(C)C(=O)O)cc2F)c1 (stereo not shown) [Example 18, 2-[3-fluoro-4-[3-(hexoxycarbonylamino)phenyl]phenyl]propanoic acid] | 30 | – | 21000 | 15000 | 170
